Results: patent publication US20260070945A1, “MACROCYCLIC IMMUNOMODULATORS” (Bristol-Myers Squibb Company, priority 2022, published 2026)
Where a SMILES comes first, the peptide text is derived from it. Bridges are numbered along the chain shown (N, C = ends). [ ]: non-standard residue; d: D form. The star is where a group is joined. Phe(4-COOH) = N[C@@H](Cc1ccc(C(=O)O)cc1)C(=O)O; Bip = N[C@@H](Cc1ccc(-c2ccccc2)cc1)C(=O)O; 4Pal = N[C@@H](Cc1ccncc1)C(=O)O; Cha = N[C@@H](CC1CCCCC1)C(=O)O; Carboxymethyl = O=C(O)C*; NMeA = CN[C@@H](C)C(=O)O; Aun = NCCCCCCCCCCC(=O)O; Dab = NCC[C@H](N)C(=O)O; Dap = NC[C@H](N)C(=O)O; AEEA = NCCOCCOCC(=O)O

Each compound was assayed against T1, PD-1/PD-L1 interaction (PE-labeled human PD-L1-Ig binding to Jurkat cell line over-expressing human PD-1) (Homo sapiens, UniProt Q15116) (assay: Jurkat-PD-1 Cell Binding High-Content Screening Assay (CBA)). Conditions: Jurkat-hPD-1 cells, PE-labeled PD-L1-Ig 20 nM final; read-out: Jurkat HPD1 PDL1 IC50.
T1 construct: expressed in transfected cells; host or cells: Jurkat
How it was run: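 Binding of 20 nM (final) PE-tagged PD-L1-Ig to compound-pretreated Jurkat-hPD-1 cells was measured by high-content imaging after 1 h. Pretreatment ran 2 h at 37 °C in DMEM with 10% fetal calf serum.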

T1 sequence (Q15116 25-288): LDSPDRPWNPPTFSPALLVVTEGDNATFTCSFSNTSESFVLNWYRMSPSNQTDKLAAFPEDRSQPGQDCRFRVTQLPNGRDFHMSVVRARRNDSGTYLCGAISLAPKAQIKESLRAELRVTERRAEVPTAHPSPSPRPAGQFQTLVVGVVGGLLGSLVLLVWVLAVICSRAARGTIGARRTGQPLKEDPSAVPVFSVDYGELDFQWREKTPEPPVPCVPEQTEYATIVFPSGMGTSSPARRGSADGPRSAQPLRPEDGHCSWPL

Compared with CC[C@H](C)[C@@H]1NC(=O)[C@H](Cc2ccc(-c3ccccc3)cc2)NC(=O)[C@H](CC(C)C)NC(=O)[C@H](Cc2c[nH]c3ccccc23)NC(=O)[C@H](CC(=O)O)NC(=O)[C@H](Cc2ccc(C(=O)O)cc2)NC(=O)[C@H](Cc2ccc(OCC(=O)O)cc2)NC(=O)CSC[C@@H](C(=O)N[C@@H](CCCCN)C(=O)NCCOCCOCC(=O)NCCCCCCCCCCC(=O)O)NC(=O)[C@H](CO)NC(=O)[C@H](C(C)C)NC(=O)[C@H](CC2CCCCC2)NC(=O)[C@H](CCN)NC(=O)[C@@H](CC(C)C)NC(=O)[C@H](C)N(C)C1=O [Example 1079] ({CH2CO}-Y(Carboxymethyl)[Phe(4-COOH)]DWL[Bip]I[NMeA][dL][Dab][Cha]VSCK[AEEA][Aun]-OH; thioether N-14), CC[C@H](C)[C@@H]1NC(=O)[C@H](Cc2ccc(-c3ccccc3)cc2)NC(=O)[C@H](CC(C)C)NC(=O)[C@H](Cc2c[nH]c3ccccc23)NC(=O)[C@H](CC(=O)O)NC(=O)[C@H](Cc2ccc(C(=O)O)cc2)NC(=O)[C@H](Cc2ccc(OCC(=O)O)cc2)NC(=O)CSC[C@@H](C(=O)N[C@@H](CCCNC(=N)N)C(=O)NCCOCCOCC(=O)NCCCCCCCCCCC(=O)O)NC(=O)[C@H](CO)NC(=O)[C@H](C(C)C)NC(=O)[C@H](CC2CCCCC2)NC(=O)[C@H](CCN)NC(=O)[C@@H](CC(C)C)NC(=O)[C@H](C)N(C)C1=O [Example 1080] ({CH2CO}-Y(Carboxymethyl)[Phe(4-COOH)]DWL[Bip]I[NMeA][dL][Dab][Cha]VSCR[AEEA][Aun]-OH; thioether N-14) is 1.7-fold higher in IC50: 10.8 nM for the first, 18.6 nM for the second.

Compared with CC(C)C[C@@H]1NC(=O)[C@H](Cc2c[nH]c3ccccc23)NC(=O)[C@H](CC(=O)O)NC(=O)[C@H](Cc2ccncc2)NC(=O)[C@H](Cc2ccc(OCC(=O)O)cc2)NC(=O)CSC[C@@H](C(=O)NCCOCCOCC(=O)NCCCCCCCCCCC(=O)O)NC(=O)[C@H](CO)NC(=O)[C@H](C(C)C)NC(=O)[C@H](CC2CCCCC2)NC(=O)[C@H](CCN)NC(=O)[C@@H](CC(C)C)NC(=O)[C@H](C)N(C)C(=O)[C@H](C(C)C)NC(=O)[C@H](Cc2ccc(-c3ccccc3)cc2)NC1=O [Example 1081] ({CH2CO}-Y(Carboxymethyl)[4Pal]DWL[Bip]V[NMeA][dL][Dab][Cha]VSC[AEEA][Aun]-OH; thioether N-14), CC(C)C[C@@H]1NC(=O)[C@H](Cc2c[nH]c3ccccc23)NC(=O)[C@H](CC(=O)O)NC(=O)[C@H](Cc2ccncc2)NC(=O)[C@H](Cc2ccc(OCC(=O)O)cc2)NC(=O)CSC[C@@H](C(=O)N[C@@H](CN)C(=O)NCCCCCCCCCCC(=O)O)NC(=O)[C@H](CO)NC(=O)[C@H](C(C)C)NC(=O)[C@H](CC2CCCCC2)NC(=O)[C@H](CCN)NC(=O)[C@@H](CC(C)C)NC(=O)[C@H](C)N(C)C(=O)[C@H](C(C)C)NC(=O)[C@H](Cc2ccc(-c3ccccc3)cc2)NC1=O [Example 1082] ({CH2CO}-Y(Carboxymethyl)[4Pal]DWL[Bip]V[NMeA][dL][Dab][Cha]VSC[Dap][Aun]-OH; thioether N-14) is 2.8-fold higher in IC50: 10.1 nM for the first, 28.2 nM for the second.

CC(C)C[C@@H]1NC(=O)[C@H](Cc2c[nH]c3ccccc23)NC(=O)[C@H](CC(=O)O)NC(=O)[C@H](Cc2ccncc2)NC(=O)[C@H](Cc2ccc(OCC(=O)O)cc2)NC(=O)CSC[C@@H](C(=O)N[C@@H](CCN)C(=O)NCCCCCCCCCCC(=O)O)NC(=O)[C@H](CO)NC(=O)[C@H](C(C)C)NC(=O)[C@H](CC2CCCCC2)NC(=O)[C@H](CCN)NC(=O)[C@@H](CC(C)C)NC(=O)[C@H](C)N(C)C(=O)[C@H](C(C)C)NC(=O)[C@H](Cc2ccc(-c3ccccc3)cc2)NC1=O [Example 1083] ({CH2CO}-Y(Carboxymethyl)[4Pal]DWL[Bip]V[NMeA][dL][Dab][Cha]VSC[Dab][Aun]-OH; thioether N-14) was tested, and the IC50 was 15.7 nM.
